Patent US8999974B2, “Acyl piperazine derivatives as TTX-S blockers” (Raqualia Pharma Inc., priority 2010, dated 2015)

biological target: T1, human NaV1.3 (Homo sapiens, UniProt Q9NY46); experiment: FRET assay (EFS, FDSS) on HEK293 cells expressing human NaV1.3 channels; format: cell-based; details: FRET assay, HEK293 cells expressing human NaV1.3; read-out: IC50 against Nav1.3
T1 construct: expressed in transfected cells; host or cells: HEK293
Procedure: This screen was used to determine the effects of compounds on human NaV1.3, human Nav1.7, and human Nav1.5 channels, utilising electrical field stimulation (EFS) system in 96-well plate format on FDSS (Hamamatsu Photonics) platform. The change of membrane potential was monitored with FRET dye pair, oxonol (DiSBAC2(3)) and coumarin (CC2-DMPE).
Each HEK293 cells expressing human NaV1.3 channels and HEK293 cells expressing human NaV1.5 channels were grown in T225 flasks, in a 5% CO2 humidified incubator to about 80% confluence. Media composition consisted of Dulbecco's Modified Eagle Medium (high glucose), 10% FCS, 100 units/ml Penicillin, 100 microgram/ml Streptomycin and 500 microgram/ml Geneticine.
Protocol: • Seeded each cell lines (1×10^5 cells/well) into poly-D-lysine coated 96-well plates prior to experimentation. • Incubated at 37° C. in 5% CO2 for 24 hours. • Washed each well with assay buffer (140 mM NaCl, 4.5 mM KCl, 10 mM D-Glucose, 2 mM CaCl2, 1 mM MgCl2, 10 mM HEPES, pH 7.4 adjusted with NaOH) twice. • Added 1st loading solution containing 10 microM CC2-DMPE and 0.06% Pluronic F-127 in assay buffer. • Incubated the plate at room temperature in dark for 1 hour. • Removed 1st loading solution and added 2nd loading solution containing 15 microM DiSBAC2(3), 0.555 mM VABSC-1 and 0.004% Pluronic F-127 in assay buffer. • Placed the plate under the dark at room temperature for 25 minutes. • Added compound solutions into the assay plate. • Set the assay plate in FDSS and placed an EFS device on the plate. • Measured EFS-induced fluorescent response by FDSS.
The data were analyzed and reported as normalized ratios of intensities measured at […]. The process of calculating these ratios was performed as follows:
[formula] This analysis was performed using a computerized specific program designed for FDSS generated data. Fluorescence ratio values were plotted using XLfit to determine an IC50 value for each compound.

T1 sequence (Q9NY46 whole entry): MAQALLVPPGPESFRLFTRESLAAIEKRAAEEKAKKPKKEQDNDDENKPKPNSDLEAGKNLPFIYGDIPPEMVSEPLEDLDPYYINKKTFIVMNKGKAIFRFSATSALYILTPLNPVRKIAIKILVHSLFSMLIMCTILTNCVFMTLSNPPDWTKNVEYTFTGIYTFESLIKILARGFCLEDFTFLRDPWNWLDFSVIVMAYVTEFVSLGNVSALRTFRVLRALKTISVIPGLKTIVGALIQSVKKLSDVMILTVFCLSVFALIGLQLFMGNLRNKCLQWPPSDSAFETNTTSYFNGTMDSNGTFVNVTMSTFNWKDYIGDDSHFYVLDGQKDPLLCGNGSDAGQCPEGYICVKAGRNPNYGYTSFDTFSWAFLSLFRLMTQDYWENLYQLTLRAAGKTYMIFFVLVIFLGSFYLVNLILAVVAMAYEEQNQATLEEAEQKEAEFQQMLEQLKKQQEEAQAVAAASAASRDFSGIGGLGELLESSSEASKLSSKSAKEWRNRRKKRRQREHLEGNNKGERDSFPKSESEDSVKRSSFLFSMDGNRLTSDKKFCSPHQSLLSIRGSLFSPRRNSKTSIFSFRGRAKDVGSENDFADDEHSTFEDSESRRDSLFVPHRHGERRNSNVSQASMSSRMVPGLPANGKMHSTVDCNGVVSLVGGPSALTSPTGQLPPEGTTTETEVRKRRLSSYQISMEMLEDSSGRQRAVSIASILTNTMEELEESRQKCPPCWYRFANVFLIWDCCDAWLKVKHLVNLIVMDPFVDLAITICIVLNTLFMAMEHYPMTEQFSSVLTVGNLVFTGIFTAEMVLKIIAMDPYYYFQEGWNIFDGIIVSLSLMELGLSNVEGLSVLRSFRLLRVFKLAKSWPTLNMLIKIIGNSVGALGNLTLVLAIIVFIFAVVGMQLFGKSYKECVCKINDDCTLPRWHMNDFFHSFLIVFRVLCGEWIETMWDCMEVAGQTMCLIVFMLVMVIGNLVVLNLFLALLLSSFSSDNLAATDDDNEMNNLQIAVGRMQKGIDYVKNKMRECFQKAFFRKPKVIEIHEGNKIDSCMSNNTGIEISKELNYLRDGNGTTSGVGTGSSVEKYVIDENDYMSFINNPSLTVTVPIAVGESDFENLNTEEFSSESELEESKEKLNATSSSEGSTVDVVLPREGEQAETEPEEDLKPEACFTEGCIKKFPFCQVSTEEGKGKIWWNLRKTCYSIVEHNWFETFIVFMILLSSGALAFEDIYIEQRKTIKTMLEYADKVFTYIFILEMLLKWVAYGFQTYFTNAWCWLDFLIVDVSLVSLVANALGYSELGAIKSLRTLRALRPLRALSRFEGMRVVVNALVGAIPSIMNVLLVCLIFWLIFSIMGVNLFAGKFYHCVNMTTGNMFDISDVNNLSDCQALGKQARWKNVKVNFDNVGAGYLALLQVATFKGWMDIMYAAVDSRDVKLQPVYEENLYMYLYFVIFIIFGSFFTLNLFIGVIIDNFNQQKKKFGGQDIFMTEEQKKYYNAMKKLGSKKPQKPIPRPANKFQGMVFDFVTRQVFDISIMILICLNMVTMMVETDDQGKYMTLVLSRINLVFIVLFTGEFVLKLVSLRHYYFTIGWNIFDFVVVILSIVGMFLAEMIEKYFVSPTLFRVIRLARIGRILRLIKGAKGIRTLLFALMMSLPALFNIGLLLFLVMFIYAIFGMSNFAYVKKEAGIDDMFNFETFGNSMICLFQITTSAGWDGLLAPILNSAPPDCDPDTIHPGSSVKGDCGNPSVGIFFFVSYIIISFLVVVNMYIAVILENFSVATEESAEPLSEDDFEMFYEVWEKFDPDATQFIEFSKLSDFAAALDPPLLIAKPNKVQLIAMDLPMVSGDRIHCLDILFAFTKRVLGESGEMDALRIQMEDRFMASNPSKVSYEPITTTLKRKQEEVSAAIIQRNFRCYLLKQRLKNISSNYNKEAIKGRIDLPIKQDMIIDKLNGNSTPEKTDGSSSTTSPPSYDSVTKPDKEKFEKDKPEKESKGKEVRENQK

IC50, < 3 µM:
CC(C)COc1cc(N2CCN(C(=O)C(O)Cc3ccccc3)CC2)ncn1 (stereo in doubt) [Example 5, (R)-2-hydroxy-1-(4-(6-isobutoxypyrimidin-4-yl)piperazin-1-yl)-3-phenylpropan-1-one]
CC(C)COc1cc(N2CCN(C(=O)C(NC(=O)OC(C)(C)C)c3ccccc3)CC2)ncn1 (stereo in doubt) [Example 11, (R)-tert-butyl (2-(4-(6-isobutoxypyrimidin-4-yl)piperazin-1-yl)-2-oxo-1-phenylethyl)carbamate]
Cc1ccc(C(=O)N2CCN(c3cc(OC4CCCC4)ncn3)CC2)cc1F [Example 7]
CC(C)COc1cc(N2CCN(C(=O)c3cccc4[nH]ccc34)CC2)ncn1 [Example 9, (1H-indol-4-yl)(4-(6-isobutoxypyrimidin-4-yl)piperazin-1-yl)methanone]
CC(C)COc1cc(N2CCN(C(=O)c3cc(C(F)(F)F)nn3C)CC2)ncn1 [Example 14, (4-(6-isobutoxypyrimidin-4-yl)piperazin-1-yl)(1-methyl-3-(trifluoromethyl)-1H-pyrazol-5-yl)methanone]
Cc1ccc(C(=O)N2CCN(c3cc(OC4CCC4)ncn3)CC2)cc1F [Example 16]
CC(C)COc1cc(N2CCN(C(=O)c3ccc4ccccc4n3)CC2)ncn1 [Example 18, (4-(6-isobutoxypyrimidin-4-yl)piperazin-1-yl)(quinolin-2-yl)methanone]
CC(C)COc1cc(N2CCN(C(=O)c3nc4ccccc4n3C)CC2)ncn1 [Example 23, (4-(6-isobutoxypyrimidin-4-yl)piperazin-1-yl)(1-methyl-1H-benzo[d]imidazol-2-yl)methanone]
Cn1nc(C(=O)N2CCN(c3cc(OCC(F)(F)F)ncn3)CC2)cc1C(F)(F)F [Example 29, (1-methyl-5-(trifluoromethyl)-1H-pyrazol-3-yl)(4-(6-(2,2,2-trifluoroethoxy)pyrimidin-4-yl)piperazin-1-yl)methanone]
Cn1nc(C(=O)N2CCN(c3cc(OCC(F)(F)F)ncn3)CC2)c2ccccc21 [Example 30, (1-methyl-1H-indazol-3-yl)(4-(6-(2,2,2-trifluoroethoxy)pyrimidin-4-yl)piperazin-1-yl)methanone]
CC(C)COc1cc(N2CCN(C(=O)c3cnc4ccccc4n3)CC2)ncn1 [Example 34, (4-(6-isobutoxypyrimidin-4-yl)piperazin-1-yl)(quinoxalin-2-yl)methanone]
Cn1nc(C(=O)N2CCN(c3cc(OC4CCC4)ncn3)CC2)c2ccccc21 [Example 38, (4-(6-cyclobutoxypyrimidin-4-yl)piperazin-1-yl)(1-methyl-1H-indazol-3-yl)methanone]
CC(C)COc1cc(N2CCN(C(=O)C(C)Oc3ccc(F)cc3)CC2)ncn1 (centres unmarked) [Example 48, 2-(4-fluorophenoxy)-1-(4-(6-isobutoxypyrimidin-4-yl)piperazin-1-yl)propan-1-one]
CC(C)COc1cc(N2CCN(C(=O)c3cccc(N4CCCC4)n3)CC2)ncn1 [Example 52, (4-(6-isobutoxypyrimidin-4-yl)piperazin-1-yl)(6-(pyrrolidin-1-yl)pyridin-2-yl)methanone]
CC(C)COc1cc(N2CCN(C(=O)OCc3ccccc3)CC2)ncn1 [Example 53, benzyl 4-(6-isobutoxypyrimidin-4-yl)piperazine-1-carboxylate]
CC(C)COc1cc(N2CCN(C(=O)CN3C(=O)COc4ccccc43)CC2)ncn1 [Example 57, 4-(2-(4-(6-isobutoxypyrimidin-4-yl)piperazin-1-yl)-2-oxoethyl)-2H-benzo[b][1,4]oxazin-3(4H)-one]
CC(C)COc1cc(N2CCN(C(=O)Cc3noc4ccccc34)CC2)ncn1 [Example 58, 2-(benzo[d]isoxazol-3-yl)-1-(4-(6-isobutoxypyrimidin-4-yl)piperazin-1-yl)ethanone]
CC(C)COc1cc(N2CCN(C(=O)CCN3Cc4ccccc4C3=O)CC2)ncn1 [Example 61, 2-(3-(4-(6-isobutoxypyrimidin-4-yl)piperazin-1-yl)-3-oxopropyl)isoindolin-1-one]
COCCn1c(C(=O)N2CCN(c3cc(OCC(C)C)ncn3)CC2)cc2ccccc21 [Example 62, (4-(6-isobutoxypyrimidin-4-yl)piperazin-1-yl)(1-(2-methoxyethyl)-1H-indol-2-yl)methanone]
COc1cc(C(=O)N2CCN(c3cc(OCC(F)(F)F)ncn3)CC2)nc2ccccc12 [Example 63, (4-methoxyquinolin-2-yl)(4-(6-(2,2,2-trifluoroethoxy)pyrimidin-4-yl)piperazin-1-yl)methanone]
O=C(c1n[nH]c2ccccc12)N1CCN(c2cc(OCC(F)(F)F)ncn2)CC1 [Example 68, (1H-indazol-3-yl)(4-(6-(2,2,2-trifluoroethoxy)pyrimidin-4-yl)piperazin-1-yl)methanone]
COc1cccc(C(=O)NCC(=O)N2CCN(c3cc(OCC(C)C)ncn3)CC2)n1 [Example 73, N-(2-(4-(6-isobutoxypyrimidin-4-yl)piperazin-1-yl)-2-oxoethyl)-6-methoxypicolinamide]
CC(C)COc1cc(N2CCN(C(=O)COc3cccc4ncccc34)CC2)ncn1 [Example 78, 1-(4-(6-isobutoxypyrimidin-4-yl)piperazin-1-yl)-2-(quinolin-5-yloxy)ethanone]
O=C(c1cnc2ccccc2n1)N1CCN(c2cc(OC3CCC3)ncn2)CC1 [Example 82, (4-(6-cyclobutoxypyrimidin-4-yl)piperazin-1-yl)(quinoxalin-2-yl)methanone]
O=C(c1ccc2cccc(O)c2n1)N1CCN(c2cc(OC3CCC3)ncn2)CC1 [Example 83, (4-(6-cyclobutoxypyrimidin-4-yl)piperazin-1-yl)(8-hydroxyquinolin-2-yl)methanone]
O=C(NCC(=O)N1CCN(c2cc(OC3CCC3)ncn2)CC1)c1ccccc1 [Example 85, N-(2-(4-(6-cyclobutoxypyrimidin-4-yl)piperazin-1-yl)-2-oxoethyl)benzamide]
Cc1cc(C(=O)N2CCN(c3cc(OCC(C)C)ncn3)CC2)nn1-c1ccccc1 [Example 91]
CC(C)COc1cc(N2CCN(C(=O)c3ccc(-c4cnco4)cc3)CC2)ncn1 [Example 92]
CC(C)COc1cc(N2CCN(C(=O)c3ccc(-n4cccn4)cc3)CC2)ncn1 [Example 93, (4-(1H-pyrazol-1-yl)phenyl)(4-(6-isobutoxypyrimidin-4-yl)piperazin-1-yl)methanone]
Cc1ccc(C(=O)N2C[C@@H]3C[C@H]2CN3c2cc(OCC(C)C)ncn2)cc1F [Example 94, (3-fluoro-4-methylphenyl)((1S,4S)-5-(6-isobutoxypyrimidin-4-yl)-2,5-diazabicyclo[2.2.1]heptan-2-yl)methanone]
CC(C)COc1cc(N2CCN(C(=O)COc3cccc(F)c3)CC2)ncn1 [Example 96, 2-(3-fluorophenoxy)-1-(4-(6-isobutoxypyrimidin-4-yl)piperazin-1-yl)ethanone]
CC(C)COc1cc(N2CCN(C(=O)COc3ccc(F)c(F)c3)CC2)ncn1 [Example 97, 2-(3,4-difluorophenoxy)-1-(4-(6-isobutoxypyrimidin-4-yl)piperazin-1-yl)ethanone]
CC(C)COc1cc(N2CCN(C(=O)CN3CCc4ccccc4C3=O)CC2)ncn1 [Example 98, 2-(2-(4-(6-isobutoxypyrimidin-4-yl)piperazin-1-yl)-2-oxoethyl)-3,4-dihydroisoquinolin-1(2H)-one]
CC(C)COc1cc(N2CCN(C(=O)Cc3cn(C)c4ccccc34)CC2)ncn1 [Example 101, 1-(4-(6-isobutoxypyrimidin-4-yl)piperazin-1-yl)-2-(1-methyl-1H-indol-3-yl)ethanone]
CC(C)COc1cc(N2CCN(C(=O)COCc3ccccc3)CC2)ncn1 [Example 106, 2-(benzyloxy)-1-(4-(6-isobutoxypyrimidin-4-yl)piperazin-1-yl)ethanone]
